In patent US20230150920A1, “SALTS AND SOLID FORMS OF 4-BROMO-2,5-DIMETHOXYPHENETHYLAMINE” (priority 2021, published 2023):
Counter-ions that a name gives are not always drawn.

How the values were obtained:
[1] = Experimental: Solubilities in water were estimated for the majority of the salts identified during screening. The experiments were carried out by adding water in aliquots to weighed portions of solid. […] Values are reported as “≥” if complete dissolution was observed upon the first aliquot.
[2] = Dynamic vapor sorption/desorption (DVS), hygroscopicity; type: physicochemical
Experimental: The active pharmaceutical ingredient (API), 4-bromo-2,5-dimethoxyphenethylamine hydrochloride, is characterized to evaluate its physical properties. The evaluation is performed by X-ray powder diffraction (XRPD), polarized light microscopy (PLM), differential scanning calorimetry (DSC), thermogravimetry (TG), dynamic vapor sorption/desorption (DVS), and/or solubility testing in organic solvents, water, and mixed solvent systems. XRPD data are used to assess crystallinity. PLM data are used to evaluate crystallinity and particle size/morphology. DSC data are used to evaluate melting point, thermal stability, and crystalline form conversion. TG data are used to evaluate if the API is a solvate or hydrate, and to evaluate thermal stability. DVS data are used to evaluate hygroscopicity of the API and if hydrates can be formed at high relative humidity.
The form characterized in FIGS. 1 and 2 is designated as Form A herein. […] A sharp endotherm at 238° C. in the DSC thermogram is attributed to melting.

[3] = Deliquescence at 75% RH at ambient temperature; type: physicochemical
[4] = Dynamic vapor sorption (DVS) with XRPD of the post-DVS sample; type: physicochemical
Experimental: Dynamic Vapor Sorption (DVS) analysis was carried out using a TA Instruments Q5000 Dynamic Vapor Sorption analyzer. The instrument was calibrated with standard weights and a sodium bromide standard for humidity. Approximately 10-25 mg of sample was loaded into a metal-coated quartz pan for analysis. The sample was analyzed at 25° C. with a maximum equilibration time of one hour in 10% relative humidity (RH) steps from 5 to 95% RH (adsorption cycle) and from 95 to 5% RH (desorption cycle). The movement from one step to the next occurred either after satisfying the equilibrium criterion of 0.01% weight change or, if the equilibrium criterion was not met, after one hour. The percent weight change values were calculated using Microsoft Excel.
(§1) The DVS analysis was carried out using a TA Instruments Q5000 Dynamic Vapor Sorption analyzer. 13.5 mg of sample was loaded into a metal-coated quartz pan for analysis. After equilibration to 5% relative humidity (RH), the sample was analyzed at 25° C. in 10% RH steps from 5 to 95% RH (adsorption cycle) and from 95 to 5% RH (desorption cycle). The movement from one step to the next occurred either after satisfying the equilibrium criterion of 0.01% weight change in 5 minutes or, if the equilibrium criterion was not met, after 90 minutes. The percent weight change values are calculated using Microsoft Excel®.
as §1, with “DVS analyses were” for “DVS analysis was”, “analyzer. Approximately 7-11” for “analyzer. 13.5”, “equilibration at” for “equilibration to”, “values were” for “values are”
as §1, with “analyzer. Approximately 2” for “analyzer. 13.5”, “equilibration at” for “equilibration to”, “values were” for “values are”

[5] = Estimated solubilities of 2C-B HCl in solvents; conditions: thermodynamic from solid
[6] = Solubility estimate by adding solvent aliquots to weighed solid, dissolution judged visually; conditions: thermodynamic from solid
[7] = MeOH/CHCl3 50/50, organic solvent or mixture
[8] = acetone, organic solvent or mixture
[9] = acetone/H2O 80/20, organic solvent or mixture

For 2C-B malate, the “Kinetic water solubility” value [1] was 6 mg/mL, the “estimated kinetic solubility in water” value ([1]; room temperature, visually determined) was 6 mg/mL and the “aqueous solubility (kinetic)” value ([1]; water, kinetic estimate) was 6 mg/mL aqueous. For the same compound, the “Estimated kinetic aqueous solubility” value ([1]; water, room temperature, * = a few particulates/flakes remaining (see comments)) was 6 mg/mL, the “Water uptake (5-85% RH) %” value ([2]; 5-85% RH part of sorption) was 0.6% and the “Water uptake (85-95% RH) %” value ([2]; 85-95% RH part of sorption) was “(5-85); 1 (85-95) %”. The “Hygroscopicity: weight gain” value ([2]; <85% RH) was “RH: 0.6%”, the “Hygroscopicity: weight gain” value ([2]; >85% RH) was “RH: 1.0% gain” and the Hygroscopicity ([2]; grade in words, from DVS) was “Slightly”. The “Water uptake (5-95% RH) %” value ([2]; total, 5-95% RH) was 1.6%, the deliquescence ([3]; at 75% RH) was “Did not deliquesce” and the deliquescence ([3]; several days at 75% RH at ambient temperature) was “not observed”. The “hygroscopicity based on DVS data” value ([4]; 25° C., 5 to 95% RH) was “slightly hygroscopic”, the “moisture gain by DVS” value ([4]; 25° C., adsorption 5 to 95% RH) was 1.6% and the “moisture gain by DVS, equivalent moles of water” value ([4]; 25° C., adsorption 5 to 95% RH) was “approximately 0.4 moles”. For the same compound, the “post-DVS XRPD result” value ([4]; XRPD of the post-DVS sample) was “Consistent with Malate”, the “DVS desorption weight loss, 85-5% RH” value ([4]; desorption 85-5% RH) was 85-5% RH: 0.6% loss and the “DVS desorption weight loss, 95-85% RH” value ([4]; desorption 95-85% RH) was 95-85% RH: 1.0% loss. The “behaviour on desorption / form change by XRPD of post-DVS sample” value ([4]; desorption 95 to 5% RH) was “all the gained moisture is lost without form change”, the “DVS desorption total loss” value ([4]; desorption, total) was “Total loss: 1.6%” and the “DVS sorption weight gain, 5-85% RH” value ([4]; sorption 5-85% RH) was 5-85% RH: 0.6% gain. For the same compound, the “DVS sorption weight gain, 85-95% RH” value ([4]; sorption 85-95% RH) was 85-95% RH: 1.0% gain and the “DVS sorption total gain” value ([4]; sorption, total) was “Total gain: 1.6%”.

For `COc1cc(CCN)c(OC)cc1Br.Cl` [2C-B HCl, 4-bromo-2,5-dimethoxyphenethylamine HCl], the “DVS Sorption: weight gain” value ([2]; 5-95% RH) was 5-95% RH: 0.9% gain, the “DVS Desorption: weight loss” value ([2]; 95-5% RH) was 95-5% RH: 1.0% loss and the “post-DVS XRPD” value ([4]; solid form after DVS cycle) was “Form A”. The solubility ([5]; ACN, organic solvent or mixture) was < 1 mg/mL, the solubility ([5]; EtOAc, organic solvent or mixture) was < 2 mg/mL and the solubility ([5]; EtOH, organic solvent or mixture) was 13 mg/mL. The solubility ([5]; H2O, water) was 34 mg/mL, the solubility ([5]; IPA, organic solvent or mixture) was < 2 mg/mL and the solubility ([5]; MeOH, organic solvent or mixture) was 41 mg/mL. The solubility [5, 7] was 41 mg/mL, the solubility ([5]; THF, organic solvent or mixture) was < 2 mg/mL and the solubility [5, 8] was < 2 mg/mL. For the same compound, the solubility [5, 9] was ≥ 79 mg/mL.

With `COc1cc(CCN)c(OC)cc1Br` [2C-B.HCl, 4-bromo-2,5-dimethoxyphenethylamine hydrochloride] the solubility [6, 7] was 41 mg/mL, the solubility [6, 8] was < 2 mg/mL and the solubility [6, 9] was > 79 mg/mL. For the same compound, the solubility ([6]; acetonitrile, organic solvent or mixture) was < 1 mg/mL, the solubility ([6]; ethanol, organic solvent or mixture) was 13 mg/mL and the solubility ([6]; ethyl acetate, organic solvent or mixture) was < 2 mg/mL. For the same compound, the solubility ([6]; isopropanol, organic solvent or mixture) was < 2 mg/mL, the solubility ([6]; methanol, organic solvent or mixture) was 41 mg/mL and the solubility ([6]; tetrahydrofuran, organic solvent or mixture) was < 2 mg/mL. It also gave a solubility ([6]; water) of 34 mg/mL.
